From paper PMC7417721, “Cell cycle exit during bortezomib‐induced osteogenic differentiation of mesenchymal stem cells was mediated by Xbp1s‐upregulated p21^Cip1 and p27^Kip1” (Journal of Cellular and Molecular Medicine, 2020) come the findings set out here.

A word on the IC50: it is the concentration that inhibits the measured activity by half.

SMILES strings stand for the structures. Like-named read-outs stand apart in the source and are kept apart here.

Data set [1] concerns Grp78, Chop, Xbp1s, Atf4 in mBM-MSCs. Briefly: Western blotting of ER stress signalling proteins. To be noted: 24 h. In kind it is cell-based, mouse. As to the method: (§1) Western blotting was performed as described previously. ^16 Briefly, mBM‐MSCs were cultured with indicated doses of bortezomib for 24 h; then, the cells were lysed in radioimmunoprecipitation assay (RIPA) buffer. Equal amount of proteins was loaded on 10% sodium dodecyl sulphate‐polyacrylamide gel electrophoresis (SDS‐PAGE) gel and was then electrotransferred to polyvinylidene difluoride (PVDF) membrane immunoblotted for specific primary antibodies. Immunoblots were visualized using horseradish peroxidase (HRP)‐conjugated secondary antibodies (Jackson ImmunoResearch Laboratories, West Grove, PA, USA) and the enhanced chemiluminescence (ECL) Western Blot Detection Kit (Phygene Life Sciences, Fuzhou, Fujian, China). The chemiluminescent blots were captured by using digital imaging with a charge‐coupled device (CCD) camera system MiniChemi 610 and analysed by Lane 1D™ analysis software (Sage, Beijing, China).
(In general: In western blotting, separated proteins are transferred to a membrane and probed.)

In data set [2] the test system is cyclin D3, cyclin E1, Cdk2, Cdk4, p21Cip1, p27Kip1 in mBM-MSCs. Kind of data set: Western blotting of cell cycle regulatory components (cyclins, CDKs, CKIs). Format: cell-based, mouse. To be noted: 24 h. As to the method:
as §1

For data set [3], the system named is p21Cip1 and p27Kip1 mRNA in mBM-MSCs. Briefly: Real-time PCR of p21Cip1 and p27Kip1 mRNA. In kind it is cell-based, mouse. To be noted: 24 h. As to the method:
Total RNA from cells was extracted using Ultrapure RNA Kit (DNase I) (CWBIO, Beijing, China) according to the manufacturer's instructions. Reverse transcription was performed using HiFiScript cDNA Synthesis Kit (CWBIO, Beijing, China). Real‐time PCR was performed using UltraSYBR Mixture (CWBIO, Beijing, China) and a CFX96™ Real‐Time PCR Detection System (Bio‐Rad, Hercules, CA, USA). The thermal cycling conditions included 2 min at 50°C and 10 min at 95°C, followed by 40 cycles of 95°C for 15 s, 58°C for 30 s and 72°C for 30 s. Mouse β‐actin was used as internal control. The relative expression levels of each gene were analysed using the 2^‐ΔΔCt method. The primers were designed using Primer3Plus platform (http://www.bioinformatics.nl/primer3plus) and synthesized by Sangon Biotech (Shanghai, China).
For orientation: Real-time PCR tracks product formation cycle by cycle.

In data set [4] the test system is mBM-MSCs. Kind of data set: Cell cycle analysis (propidium iodide, flow cytometry). In kind it is cell-based, mouse. To be noted: 24 h; for proportion of S phase cells: mean ± SEM of three experiments (control 32.017 ± 1.991); for percentage of cells in G0/G1 phase: mean ± SEM of three experiments (control 55.14 ± 5.132). As to the method: mBM‐MSCs (5 × 10^5 cells) treated with various concentrations of bortezomib for 24 h were harvested, washed with PBS solution, fixed in 70% ethanol and kept at −20°C overnight. Cells were then resuspended in a buffer containing […] propidium iodide and […] RNase A (Solarbio Life Sciences, Beijing, China). Samples were analysed using a BD FACSCanto II flow cytometer. Data were acquired and analysed using CellQuest and ModFit software (BD Biosciences, San Jose, CA, USA).

Data set [5] relates to mBM-MSCs. Kind of data set: MTT cell viability assay. The note with it: for IC50: Mus musculus, read-out: IC50, cell viability. As to the method: mBM‐MSCs were seeded at a cell density of 5 × 10^3 cells/mL in 96‐well plates and allowed to attach to the wells for 24 h. Cells were then treated with various concentrations of bortezomib. After 24‐h and 48‐h treatment, 10 µL of 3‐(4,5‐dimethylthiazol‐2‐yl)‐2,5‐diphenyltetrazolium bromide (MTT) solution (Sigma‐Aldrich, Burlington, MA, USA) was added to each well to a final concentration of 0.5 mg/mL. The supernatant medium was then discarded, and a volume of 150 µL of DMSO was added to each well to lyse the crystal. The plates were agitated for 15 min to ensure the dissolution of any remaining crystals. The absorbance in the relevant wells was measured at 490 nm using an Ultra Microplate Reader (ELx800, BioTek Instruments, Winooski, VT, USA). Each experiment was reproduced three times in duplicate.
Background: Tetrazolium assays rely on reduction of a dye to a coloured formazan, in cell work by metabolically active cells.

The subject of data set [6] is Runx2, Sp7, Col1A1, ALP, OCN/BGLAP in mBM-MSCs. Briefly: Western blotting of osteogenesis-related proteins. Format: cell-based, mouse. To be noted: indicated concentrations, 24 h, Figure S1. As to the method: as §1
Data set [7] deals with mBM-MSCs. Briefly: EdU cell proliferation assay (flow cytometry). In kind it is cell-based, mouse. The note with it: various concentrations, 24 h. As to the method:
5‐ethynyl‐2′‐deoxyuridine (EdU) incorporation assay was performed to measure cell proliferation with the kit (Molecular Probes, Eugene, OR, USA) according to the manufacturer's instructions. Briefly, mBM‐MSCs were seeded and grown at a density of 70%‐80% confluence in 35‐mm culture dishes and then treated with various concentrations of bortezomib for 24 h. EdU was added to the culture media 4 h before the harvest. The cells were detected by flow cytometry using a BD FACSCanto II instrument. Data were analysed using FlowJo 7.6.2 software (Tree Star, Ashland, OR, USA).

The subject of data set [8] is mBM-MSCs. Briefly: Alizarin Red S staining of mineralized matrix (osteogenic differentiation). The note with it: 8 days. Format: cell-based, mouse. As to the method:
mBM‐MSCs were plated in 35‐mm‐diameter culture dishes and grown in DMEM containing 10% FBS, 100 U/mL penicillin, 100 μg/mL streptomycin, and 2 mM L‐glutamine at 37°C in a humidified incubator with 5% CO2 in the air. When cell density reached 70%‐80% confluence, the cells were subsequently cultured in the presence or absence of bortezomib at the indicated concentrations for 8 days. The culture medium was changed every 3 days. mBM‐MSCs cultured in an osteogenic induction media containing […] ascorbic acid and 10 mM β‐glycerophosphate sodium were used as a positive control. For Alizarin Red S (ARS) (Solarbio Life Sciences, Beijing, China) staining, mBM‐MSCs were fixed with 4% formaldehyde for 10 min, then rinsed twice with phosphatebuffered saline (PBS) at room temperature. The cells were then stained with 1% ARS (pH 4.2) for up to 15 min at room temperature. Images of mBM‐MSCs stained with ARS were captured and stored digitally.

Where [9] appears, read: MKC3946 10 nM with bortezomib 2.5 nM.

For `Cn1cc(-c2ccc3c(c2)CCN3C(=O)Cc2cccc(C(F)(F)F)c2)c2c(N)ncnc21` [GSK2606414], in data set [1] (in the presence of bortezomib), the “Atf4 (protein)” value is “marked decrease”. In data set [2] (in the presence of bortezomib), the “expression of p21Cip1 (protein)” value was “no significant effects” and the “expression of p27Kip1 (protein)” value is reported as “no significant effects”.
In the case of `CN1CCN(C(=O)c2ccc(-c3ccc4c(C=O)c(O)ccc4c3)s2)CC1` [MKC3946], in data set [3] (setting [9]), the “mRNA level of p21Cip1” value was “aborted up‐regulation” and the “mRNA level of p27Kip1” value is “aborted up‐regulation”. The cell cycle distribution result in the data set with mBM-MSCs [4] (10 nM MKC3946 alone, Figure S2) is recorded as “no effects”. Moreover, the “percentage of S phase” value in the data set on mBM-MSCs [4] (combination of 10 nM MKC3946 with 2.5 nM bortezomib, Figure S2) was “significantly decreased”. In data set [1] (in the presence of bortezomib), the “bortezomib-induced Xbp1s (protein)” value is recorded as “aborted”. In data set [2] (in the presence of bortezomib), the “expression of p21Cip1 (protein)” value is listed as “decrease” and the “expression of p27Kip1 (protein)” value is given as “decrease”.
Turning to `CC(C)C[C@H](NC(=O)[C@H](Cc1ccccc1)NC(=O)c1cnccn1)B(O)O` [bortezomib, Bortezomib], in the data set with mBM-MSCs [5] (24 h), the IC50 was determined as 8.89 nM. In addition, the IC50 with mBM-MSCs [5] (48 h) came out at 6.64 nM. Also, in the data set with mBM-MSCs [5] (mBM-MSCs, MTT, 24 h and 48 h), the “doses resulting in cytotoxicity to mBM-MSCs” value is recorded as “higher than 5 nM”. Also, in data set [6], the “expression of Col1A1” value is given as “induce the expression”, the “expression of Runx2” value is reported as “induce the expression”, the “expression of Sp7” value is recorded as “induce the expression” and the “expression of alkaline phosphatase (ALP)” value was “induce the expression”. Also, the “expression of osteocalcin (OCN/BGLAP)” value in data set [6] is given as “induce the expression”. Also, in data set [3] (2.5 nM), the “mRNA level of p21Cip1” value was “significantly up‐regulated” and the “mRNA level of p27Kip1” value was “significantly up‐regulated”. Further, in the data set on mBM-MSCs [4] (2.5 nM and 5 nM), the “proportion of cells in the G2/M phase” value is “no significant change”. In the data set on mBM-MSCs [4] (2.5 nM), the “proportion of S phase cells” value was 21.807 ± 2.844% and the “percentage of cells in G0/G1 phase” value came out at 67.36 ± 6.067%. Further, in the data set with mBM-MSCs [4] (5 nM), the “proportion of S phase cells” value was determined as 19.940 ± 4.321% and the “percentage of cells in G0/G1 phase” value was 68.117 ± 2.743%. For the same compound, the “numbers of EdU-positive mBM-MSCs” value with mBM-MSCs [7] is listed as “dose‐dependently decreased”. Also, the “calcium deposition (ARS staining) versus control cells” value with mBM-MSCs [8] (2.5 nM) is on record as “much higher amounts of calcium phosphate crystals than the control cells”. In addition, the “calcium deposition (ARS staining) versus control cells” value in the data set with mBM-MSCs [8] (5 nM) is reported as “much higher amounts of calcium phosphate crystals than the control cells”. In data set [1] (indicated concentrations), the “expression of Atf4” value was “activated”, the “expression of ER stress marker Chop” value is recorded as “increased expression levels”, the “expression of ER stress marker Grp78” value is “increased expression levels” and the “expression of Xbp1s” value is on record as “activated”. In addition, in data set [2] (indicated concentrations), the “expression of Cdk2 (protein)” value is recorded as “markedly decreased”, the “expression of Cdk4 (protein)” value is reported as “markedly decreased”, the “expression of cyclin D3 (protein)” value is on record as “no effects” and the “expression of cyclin E1 (protein)” value is given as “no effects”. Also, in data set [2] (indicated concentrations), the “expression of p21Cip1 (protein)” value is reported as “significantly increased” and the “expression of p27Kip1 (protein)” value is given as “significantly increased”.
